Experimental data as given in US20250236589A1, “THERAPEUTIC PHENETHYLAMINE COMPOSITIONS AND METHODS OF USE” (Cybin IRL Limited, priority 2022, published 2025).
Like-named read-outs stand apart in the source and are kept apart here.

Legend:
[1] = target: human 5-HT2B receptor (Homo sapiens (Human), UniProt P41595); experiment: 5-HT2B radioligand binding ([125I](±)DOI)
Procedure: In another series of 5-HT1A,2A,2B radioligand competition binding assays, the conditions were as follows: For 5-HT1A assays, cell membrane homogenates (˜30 μg protein) derived from HEK-293 cells expressing human 5-HT1ARs were incubated with 0.5 nM [^3H]8-hydroxy-2-(di-n-propylamino)tetralin ([^3H]8-OH-DPAT) for 60 min at room temperature in the presence or absence of the test article. Non-specific binding was determined in the presence of 10 μM 8-OH-DPAT. Samples were then analyzed as described above, with only immaterial differences. […] Samples were then analyzed as described above.

[2] = target: 5-HT2A receptor (Homo sapiens (Human), UniProt P28223); experiment: 5-HT2A functional assay, IP1 (IPOne); format: cell-based; details: for Emax: relative to 5-HT
Procedure: After incubation, cells were lysed and fluorescence acceptor and donor were added. FRET was measured after 60 min at room temperature using a microplate reader (Envision, Perkin Elmer). TRUPATH assays followed a similar workflow, except that different reagents were used, and LiCl was not included in the samples; the protocol was based on the report by Olsen, R. H. J. et al., cited above.

[3] = target: 5-HT1A (h) (Homo sapiens (Human), UniProt P08908); experiment: Off-target screen, radioligand displacement at 10 μM; format: binding; details: agonist radioligand
[4] = target: 5-HT6 (h) (Homo sapiens (Human), UniProt P50406); experiment: as above; format: binding; details: agonist radioligand
[5] = target: Muscarinic M4 (h) (Homo sapiens (Human), UniProt P08173); experiment: as above; format: binding; details: antagonist radioligand
[6] = target: Muscarinic M5 (h) (Homo sapiens (Human), UniProt P08912); experiment: as above; format: binding; details: antagonist radioligand
[7] = target: 5-HT1B (h) (Homo sapiens (Human), UniProt P28222); experiment: as above; format: binding; details: antagonist radioligand
[8] = target: μ-opioid (h) (Homo sapiens (Human), UniProt P35372); experiment: as above; format: binding
[9] = target: Histamine H1 (h) (Homo sapiens (Human), UniProt P35367); experiment: as above; format: binding
[10] = target: 5-HT5a (h) (Homo sapiens (Human), UniProt P47898); experiment: as above; details: agonist, read-out: binding at 10 μM
[11] = target: Adrenergic β1 (h) (Homo sapiens (Human), UniProt P08588); experiment: as above; details: read-out: binding at 10 μM
[12] = target: Angiotensin AT1 (h) (Homo sapiens (Human), UniProt P30556); experiment: as above; details: read-out: binding at 10 μM
[13] = target: BZD (peripheral) (rat heart) (Rattus norvegicus (Rat), UniProt P16257); experiment: as above; details: read-out: binding at 10 μM
[14] = target: Calcitonin Gene-Related Peptide CGRP1 (h) (Homo sapiens (Human), UniProt Q16602); experiment: as above; details: read-out: binding at 10 μM
[15] = target: Cannabinoid CB1 (h) (Homo sapiens (Human), UniProt P21554); experiment: as above; format: binding
[16] = target: Cholecystokinin CCK2 (CCKB) (h) (Homo sapiens (Human), UniProt P32239); experiment: as above; details: read-out: binding at 10 μM
[17] = target: Endothelin ETB (h) (Homo sapiens (Human), UniProt P24530); experiment: as above; details: read-out: binding at 10 μM
[18] = target: Galanin GAL2 (h) (Homo sapiens (Human), UniProt O43603); experiment: as above; details: read-out: binding at 10 μM
[19] = tested on: Platelet-Derived Growth Factor (PDGF) (m); experiment: as above; format: binding, mouse
[20] = target: CXCR2 (Interleukin-8B) (h) (Homo sapiens (Human), UniProt P25025); experiment: as above; details: read-out: binding at 10 μM
[21] = target: Chemokine CCR1 (h) (Homo sapiens (Human), UniProt P32246); experiment: as above; details: read-out: binding at 10 μM
[22] = target: Histamine H2 (h) (Homo sapiens (Human), UniProt P25021); experiment: as above; details: read-out: binding at 10 μM
[23] = target: Melanocortin MC4 (h) (Homo sapiens (Human), UniProt P32245); experiment: as above; details: read-out: binding at 10 μM
[24] = target: Tachykinin NK1 (h) (Homo sapiens (Human), UniProt P25103); experiment: as above; details: read-out: binding at 10 μM
[25] = target: Neuropeptide Y Y1 (h) (Homo sapiens (Human), UniProt P25929); experiment: as above; details: read-out: binding at 10 μM
[26] = target: Neuropeptide Y Y2 (h) (Homo sapiens (Human), UniProt P49146); experiment: as above; details: read-out: binding at 10 μM
[27] = target: κ-opioid (h) (Homo sapiens (Human), UniProt P41145); experiment: as above; details: read-out: binding at 10 μM
[28] = target: Orphanin ORL1 (h) (Homo sapiens (Human), UniProt P41146); experiment: as above; details: read-out: binding at 10 μM
[29] = target: PPARγ (h) (Homo sapiens (Human), UniProt P37231); experiment: as above; details: read-out: binding at 10 μM
[30] = target: Prostaglandin EP2 (h) (Homo sapiens (Human), UniProt P43116); experiment: as above; details: read-out: binding at 10 μM
[31] = target: Prostaglandin EP4 (h) (Homo sapiens (Human), UniProt P35408); experiment: as above; details: read-out: binding at 10 μM
[32] = tested on: P2X (ATP) (rat urinary bladder); experiment: as above; format: binding
[33] = tested on: Chloride Cl— channel (GABA-gated) (rat cortex); experiment: as above; format: binding
[34] = read-out: inhibition of radioligand bound at 10 μM

Sequence of human 5-HT2B receptor (P41595 whole entry, looked up): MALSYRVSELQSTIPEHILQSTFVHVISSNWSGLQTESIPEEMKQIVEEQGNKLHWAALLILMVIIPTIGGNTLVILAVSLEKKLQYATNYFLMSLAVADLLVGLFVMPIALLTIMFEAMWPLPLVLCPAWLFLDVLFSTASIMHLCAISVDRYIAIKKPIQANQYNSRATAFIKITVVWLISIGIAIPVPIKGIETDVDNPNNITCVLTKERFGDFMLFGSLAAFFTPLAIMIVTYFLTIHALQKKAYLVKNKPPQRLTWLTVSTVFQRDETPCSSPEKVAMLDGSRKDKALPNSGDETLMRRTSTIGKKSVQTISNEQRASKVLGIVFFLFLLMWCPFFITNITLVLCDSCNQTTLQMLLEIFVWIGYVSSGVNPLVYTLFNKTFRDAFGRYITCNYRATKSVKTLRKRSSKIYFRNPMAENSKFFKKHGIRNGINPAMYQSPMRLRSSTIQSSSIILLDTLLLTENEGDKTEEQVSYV
Sequence of Adrenergic β1 (h) (P08588 whole entry, looked up): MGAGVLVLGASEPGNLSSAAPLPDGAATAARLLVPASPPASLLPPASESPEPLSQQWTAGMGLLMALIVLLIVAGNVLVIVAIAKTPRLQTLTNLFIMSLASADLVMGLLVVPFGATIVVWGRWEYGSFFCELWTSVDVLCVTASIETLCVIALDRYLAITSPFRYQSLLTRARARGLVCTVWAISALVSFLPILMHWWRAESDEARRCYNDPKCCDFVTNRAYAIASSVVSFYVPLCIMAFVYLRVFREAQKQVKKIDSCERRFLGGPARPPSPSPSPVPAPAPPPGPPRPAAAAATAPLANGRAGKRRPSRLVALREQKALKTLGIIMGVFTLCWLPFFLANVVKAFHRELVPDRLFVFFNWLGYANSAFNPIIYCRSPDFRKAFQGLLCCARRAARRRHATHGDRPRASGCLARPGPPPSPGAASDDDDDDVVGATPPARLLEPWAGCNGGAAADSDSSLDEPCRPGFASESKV
Sequence of Prostaglandin EP2 (h) (P43116 whole entry, looked up): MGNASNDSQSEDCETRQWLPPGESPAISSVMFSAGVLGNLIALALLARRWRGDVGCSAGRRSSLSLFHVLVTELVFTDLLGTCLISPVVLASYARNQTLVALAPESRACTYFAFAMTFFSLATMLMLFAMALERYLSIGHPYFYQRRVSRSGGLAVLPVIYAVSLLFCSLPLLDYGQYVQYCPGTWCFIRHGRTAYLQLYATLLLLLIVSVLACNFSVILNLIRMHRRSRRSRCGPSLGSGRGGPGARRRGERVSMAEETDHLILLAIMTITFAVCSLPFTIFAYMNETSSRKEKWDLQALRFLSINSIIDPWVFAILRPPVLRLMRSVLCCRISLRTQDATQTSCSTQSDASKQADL
Sequence of Histamine H1 (h) (P35367 whole entry, looked up): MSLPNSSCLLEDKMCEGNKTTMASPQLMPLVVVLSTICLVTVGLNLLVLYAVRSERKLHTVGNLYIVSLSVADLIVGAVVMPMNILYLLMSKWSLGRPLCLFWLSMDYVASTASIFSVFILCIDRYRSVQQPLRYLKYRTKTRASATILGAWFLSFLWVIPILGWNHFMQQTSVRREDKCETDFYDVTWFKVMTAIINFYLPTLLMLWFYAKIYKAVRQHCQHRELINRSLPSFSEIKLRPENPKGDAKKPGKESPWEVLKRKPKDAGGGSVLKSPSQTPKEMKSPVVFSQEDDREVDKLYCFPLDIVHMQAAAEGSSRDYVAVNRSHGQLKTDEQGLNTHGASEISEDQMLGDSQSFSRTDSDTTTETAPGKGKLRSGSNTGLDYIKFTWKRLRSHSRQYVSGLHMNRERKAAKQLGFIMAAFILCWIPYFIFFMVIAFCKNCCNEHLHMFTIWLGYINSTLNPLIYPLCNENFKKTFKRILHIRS
Sequence of Tachykinin NK1 (h) (P25103 whole entry, looked up): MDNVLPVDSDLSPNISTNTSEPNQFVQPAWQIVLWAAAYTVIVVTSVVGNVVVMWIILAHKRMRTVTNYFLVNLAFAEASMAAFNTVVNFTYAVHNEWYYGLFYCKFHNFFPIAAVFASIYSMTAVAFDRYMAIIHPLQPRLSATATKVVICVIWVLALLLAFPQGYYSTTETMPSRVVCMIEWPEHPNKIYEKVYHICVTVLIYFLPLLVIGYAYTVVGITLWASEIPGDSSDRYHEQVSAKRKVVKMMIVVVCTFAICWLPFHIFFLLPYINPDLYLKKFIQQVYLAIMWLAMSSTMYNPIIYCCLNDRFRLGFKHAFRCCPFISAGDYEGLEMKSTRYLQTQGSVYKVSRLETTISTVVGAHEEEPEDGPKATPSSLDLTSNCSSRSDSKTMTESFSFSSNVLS
Sequence of Neuropeptide Y Y1 (h) (P25929 whole entry, looked up): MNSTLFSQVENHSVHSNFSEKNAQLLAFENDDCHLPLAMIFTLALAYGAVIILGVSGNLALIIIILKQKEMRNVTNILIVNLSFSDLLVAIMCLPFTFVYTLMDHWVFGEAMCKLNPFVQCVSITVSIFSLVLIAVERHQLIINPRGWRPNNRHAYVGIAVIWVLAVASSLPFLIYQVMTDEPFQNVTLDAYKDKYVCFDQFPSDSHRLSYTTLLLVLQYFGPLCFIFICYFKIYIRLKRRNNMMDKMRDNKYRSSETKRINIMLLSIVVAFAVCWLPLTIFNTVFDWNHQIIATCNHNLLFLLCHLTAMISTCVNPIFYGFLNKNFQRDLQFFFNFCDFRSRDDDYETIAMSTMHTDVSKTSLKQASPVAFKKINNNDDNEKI
Sequence of 5-HT6 (h) (P50406 whole entry, looked up): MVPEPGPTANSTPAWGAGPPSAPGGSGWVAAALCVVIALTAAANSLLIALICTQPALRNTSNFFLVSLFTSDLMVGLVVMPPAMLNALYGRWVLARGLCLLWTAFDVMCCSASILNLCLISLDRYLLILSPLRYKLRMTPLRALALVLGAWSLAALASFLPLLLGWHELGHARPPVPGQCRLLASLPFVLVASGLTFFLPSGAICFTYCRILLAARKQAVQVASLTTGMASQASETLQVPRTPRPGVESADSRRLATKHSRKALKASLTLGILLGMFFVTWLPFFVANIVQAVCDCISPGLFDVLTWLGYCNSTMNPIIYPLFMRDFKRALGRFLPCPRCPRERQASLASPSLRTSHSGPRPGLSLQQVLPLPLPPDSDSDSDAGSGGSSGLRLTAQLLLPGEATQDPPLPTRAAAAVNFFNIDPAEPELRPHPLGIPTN
Sequence of Prostaglandin EP4 (h) (P35408 whole entry, looked up): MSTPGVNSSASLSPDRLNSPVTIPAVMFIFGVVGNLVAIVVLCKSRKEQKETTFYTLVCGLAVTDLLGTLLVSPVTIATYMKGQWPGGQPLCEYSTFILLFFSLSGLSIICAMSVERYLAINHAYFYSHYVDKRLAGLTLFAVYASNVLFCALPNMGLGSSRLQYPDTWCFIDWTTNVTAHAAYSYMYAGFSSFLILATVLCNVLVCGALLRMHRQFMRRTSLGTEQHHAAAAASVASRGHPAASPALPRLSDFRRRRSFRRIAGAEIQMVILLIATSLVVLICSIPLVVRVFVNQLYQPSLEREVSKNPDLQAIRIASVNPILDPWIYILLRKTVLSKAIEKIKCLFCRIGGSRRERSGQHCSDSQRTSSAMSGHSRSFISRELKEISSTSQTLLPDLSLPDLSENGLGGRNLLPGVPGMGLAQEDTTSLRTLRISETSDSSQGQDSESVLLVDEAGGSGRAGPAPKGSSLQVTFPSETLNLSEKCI
Sequence of Muscarinic M4 (h) (P08173 whole entry, looked up): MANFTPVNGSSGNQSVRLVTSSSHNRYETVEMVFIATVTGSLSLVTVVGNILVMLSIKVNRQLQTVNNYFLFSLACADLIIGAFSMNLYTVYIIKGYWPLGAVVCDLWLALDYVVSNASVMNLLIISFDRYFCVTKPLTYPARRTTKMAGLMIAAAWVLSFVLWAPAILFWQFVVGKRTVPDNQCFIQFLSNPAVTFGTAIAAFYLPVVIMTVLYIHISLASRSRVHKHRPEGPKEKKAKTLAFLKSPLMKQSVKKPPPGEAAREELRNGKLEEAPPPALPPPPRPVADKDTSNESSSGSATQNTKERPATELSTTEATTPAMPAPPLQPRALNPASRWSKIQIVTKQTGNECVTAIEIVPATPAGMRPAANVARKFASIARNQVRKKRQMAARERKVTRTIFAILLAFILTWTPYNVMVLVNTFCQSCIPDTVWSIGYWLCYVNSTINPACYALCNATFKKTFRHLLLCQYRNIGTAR
Sequence of Endothelin ETB (h) (P24530 whole entry, looked up): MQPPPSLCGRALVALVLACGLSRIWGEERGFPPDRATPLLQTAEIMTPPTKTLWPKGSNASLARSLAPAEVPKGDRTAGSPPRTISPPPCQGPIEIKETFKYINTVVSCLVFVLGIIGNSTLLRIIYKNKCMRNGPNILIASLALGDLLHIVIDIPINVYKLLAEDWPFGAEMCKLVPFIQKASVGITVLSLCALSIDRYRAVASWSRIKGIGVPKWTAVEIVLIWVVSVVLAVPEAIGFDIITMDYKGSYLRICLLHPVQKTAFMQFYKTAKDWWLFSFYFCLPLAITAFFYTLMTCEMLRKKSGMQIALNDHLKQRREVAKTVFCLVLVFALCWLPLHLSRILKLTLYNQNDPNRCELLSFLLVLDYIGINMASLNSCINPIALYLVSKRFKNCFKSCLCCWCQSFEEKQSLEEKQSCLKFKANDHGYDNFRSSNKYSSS
Sequence of Neuropeptide Y Y2 (h) (P49146 whole entry, looked up): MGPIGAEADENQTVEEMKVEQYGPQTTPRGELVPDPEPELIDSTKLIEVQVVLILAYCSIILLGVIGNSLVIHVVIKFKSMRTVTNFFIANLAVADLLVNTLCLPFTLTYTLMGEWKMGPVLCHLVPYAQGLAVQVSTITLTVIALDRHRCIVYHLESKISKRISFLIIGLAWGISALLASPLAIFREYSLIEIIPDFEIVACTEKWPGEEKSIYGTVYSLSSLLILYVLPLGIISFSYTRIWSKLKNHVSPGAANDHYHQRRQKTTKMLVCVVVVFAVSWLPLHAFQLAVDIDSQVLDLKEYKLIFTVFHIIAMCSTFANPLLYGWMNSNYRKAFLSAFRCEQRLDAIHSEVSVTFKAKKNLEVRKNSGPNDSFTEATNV

| Compound | Emax ([2]; IP1 assay) | inhibition at 10 µM [3] | inhibition at 10 µM [4] | inhibition at 10 µM [5] | inhibition at 10 µM [6] | inhibition at 10 µM [7] | inhibition at 10 µM [10] | inhibition at 10 µM [11] | inhibition at 10 µM [12] | inhibition at 10 µM [13] | inhibition at 10 µM [14] | inhibition at 10 µM ([15]; read-out: binding at 10 μM) | inhibition at 10 µM [15, 34] | inhibition at 10 µM [16] | inhibition at 10 µM [17] | inhibition at 10 µM [18] | binding at 10 μM [19] | inhibition at 10 µM [20] | inhibition at 10 µM [21] | inhibition at 10 µM [22] | also measured |
| --- | --- | --- | --- | --- | --- | --- | --- | --- | --- | --- | --- | --- | --- | --- | --- | --- | --- | --- | --- | --- | --- |
| COc1cc(SC(F)(F)F)c(OC)cc1CCN [Compound I-1, 2-(2,5-dimethoxy-4-((trifluoromethyl)thio)phenyl)ethan-1-amine] | ~86% | > 80% | > 80% | > 80% | > 80% | > 80% | < 50% | < 50% | < 50% | < 50% | < 50% | < 50% | < 50% | < 50% | < 50% | < 50% | NB (inhibited less than 50% of radioligand bound to them, and therefore it can be concluded they do not bind (“no binding,” NB)) | < 50% | < 50% | < 50% | inhibition at 10 µM [1]: > 80%; Ki ([1]; radioligand [125I](±)DOI, read-out: 5-HT2B, Ki): 6.7 nM; 5-HT2AR agonist activity (in words) [2]: pronounced agonists; EC50 [2]: 4.1 nM; activation selectivity for 5-HT2A over 5-HT2B ([2]; EC50, IP1): ~21 fold; 2A/2B EC50 Selectivity ([2]; IP1 assay): 21.5; inhibition at 10 µM ([8]; read-out: binding at 10 μM): < 50%; inhibition at 10 µM ([9]; read-out: binding at 10 μM): < 50%; inhibition at 10 µM [23]: < 50%; inhibition at 10 µM [24]: < 50%; inhibition at 10 µM [25]: < 50%; inhibition at 10 µM [26]: < 50%; inhibition at 10 µM [27]: < 50%; inhibition at 10 µM [28]: < 50%; inhibition at 10 µM [29]: < 50%; inhibition at 10 µM [30]: < 50%; inhibition at 10 µM [31]: < 50%; binding at 10 μM [32]: NB (inhibited less than 50% of radioligand bound to them, and therefore it can be concluded they do not bind (“no binding,” NB)); Decreased binding [33]: Decreased binding by ~48% |
| COc1cc(CC(C)N)c(OC)cc1I (racemic) [DOI, (±)-2,5-dimethoxy-4-iodoamphetamine, reference compound] | ~86% | ≥ 80% | 64.4% | 75.7% | 62.6% | 52.7% | < 50% | < 50% | < 50% | < 50% | < 50% | < 50% | < 50% | < 50% | < 50% | < 50% | NB (inhibited less than 50% of radioligand bound to them, and therefore it can be concluded they do not bind (“no binding,” NB)) | < 50% | < 50% | < 50% | Ki [1]: 1.5 nM; inhibition at 10 µM ([8]; agonist radioligand, read-out: inhibition at 10 μM): 65%; inhibition at 10 µM ([9]; antagonist radioligand, read-out: inhibition at 10 μM): 64.6%; inhibition at 10 µM [23]: < 50%; inhibition at 10 µM [24]: < 50%; inhibition at 10 µM [25]: < 50%; inhibition at 10 µM [26]: < 50%; inhibition at 10 µM [27]: < 50%; inhibition at 10 µM [28]: < 50%; inhibition at 10 µM [29]: < 50%; inhibition at 10 µM [30]: < 50%; inhibition at 10 µM [31]: < 50%; binding at 10 μM [32]: NB (inhibited less than 50% of radioligand bound to them, and therefore it can be concluded they do not bind (“no binding,” NB)); Decreased binding [33]: Decreased binding by ~38% |
